TGI and GI50 data for nine molecules are collected here from PubChem BioAssay (NCI).

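Assay format: 96-well plates, 48-hour exposure. Abbreviation: GI50, concentration required for 50% inhibition of growth. TGI: total growth inhibition.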 Some results are limits rather than exact numbers.

Test systems include HOP-62 NSCLC; HL-60(TB) leukemia; COLO 205 colon; HCC-2998 colon; SK-MEL-5 melanoma; CAKI-1 renal; NCI-H226 lung; HOP-92 NSCLC; OVCAR-5 ovarian; RPMI-8226 leukemia.
What all share (assay): inhibition of tumour cell growth, NCI panel, 48 h

For `CC(C)(C)OC(=O)N[C@H]1CC(=O)c2ccccc2N(CC(=O)O)C1=O`, the TGI in the assay on HOP-62 NSCLC, in the assay on HL-60(TB) leukemia, in the assay on COLO 205 colon, with HCC-2998 colon, with SK-MEL-5 melanoma and with CAKI-1 renal was above 100 µM throughout. The TGI in the assay on NCI-H226 lung and in the assay on HOP-92 NSCLC was above 100 µM in each case.
For the molecule `O=C1OC(=O)c2c1nc1ccccc1c2-c1ccccc1`, the TGI in the assay on HOP-62 NSCLC, with HL-60(TB) leukemia, with COLO 205 colon, with OVCAR-5 ovarian, with HCC-2998 colon and in the assay with SK-MEL-5 melanoma was above 100 µM in each case. Further, the TGI in the assay with CAKI-1 renal, with NCI-H226 lung, in the assay on RPMI-8226 leukemia and in the assay on HOP-92 NSCLC was above 100 µM throughout.
Turning to `OCCNc1nc2ccccc2c2[nH]c3ccccc3c12`, the GI50 was 0.583 µM in the assay on HOP-62 NSCLC; 0.349 µM in the assay on HL-60(TB) leukemia; 0.329 µM in the assay on COLO 205 colon; 1.13 µM in the assay on OVCAR-5 ovarian; 0.527 µM in the assay with HCC-2998 colon; 0.979 µM in the assay with SK-MEL-5 melanoma. In addition, the GI50 with CAKI-1 renal is 0.529 µM; with NCI-H226 lung it was 0.839 µM; in the assay with RPMI-8226 leukemia, 0.388 µM; in the assay with HOP-92 NSCLC, 0.943 µM. For the same molecule, the TGI is 6.66 µM in the assay on HOP-62 NSCLC; 1.95 µM in the assay with HL-60(TB) leukemia; 1.37 µM with COLO 205 colon; 7.55 µM in the assay with OVCAR-5 ovarian; 1.71 µM in the assay on HCC-2998 colon; 2.54 µM in the assay with SK-MEL-5 melanoma. The TGI with CAKI-1 renal is 8.9 µM; in the assay with NCI-H226 lung, 4.79 µM; in the assay on RPMI-8226 leukemia, 3.91 µM; with HOP-92 NSCLC, 13.2 µM.
Regarding `CCc1c(OC(C)=O)c2c(NC3OC(COC(C)=O)C(OC(C)=O)C(OC(C)=O)C3OC(C)=O)nc(SC)nc2oc1=O` (centres undefined), the TGI in the assay on HOP-62 NSCLC, with HL-60(TB) leukemia, in the assay with COLO 205 colon, in the assay with OVCAR-5 ovarian, in the assay with HCC-2998 colon and in the assay with SK-MEL-5 melanoma was above 100 µM in each case. For the same molecule, the TGI in the assay on CAKI-1 renal, in the assay on NCI-H226 lung, in the assay on RPMI-8226 leukemia and with HOP-92 NSCLC was above 100 µM each time.
With `C/C(=C/CCC(C)[C@@H]1CC[C@]2(C)C3=C(CC[C@@]12C)[C@@]1(C)CCC(=O)C(C)(C)[C@@H]1CC3)C(=O)O` (some centres undefined), the GI50 with HOP-62 NSCLC was 1.99 µM; in the assay with HL-60(TB) leukemia it was 0.855 µM; in the assay on COLO 205 colon it was 1.86 µM; in the assay on OVCAR-5 ovarian, 1.68 µM; with HCC-2998 colon, 1.1 µM; in the assay with SK-MEL-5 melanoma, 1.07 µM. The GI50 was 0.753 µM in the assay with CAKI-1 renal, 1.46 µM with NCI-H226 lung and 0.783 µM in the assay with HOP-92 NSCLC. The TGI in the assay with HOP-62 NSCLC is 3.57 µM; in the assay with HL-60(TB) leukemia, 2.32 µM; with COLO 205 colon it was 3.6 µM; in the assay on OVCAR-5 ovarian, 3.29 µM; with HCC-2998 colon, 2.44 µM; in the assay with SK-MEL-5 melanoma, 2.44 µM. For the same molecule, the values for the TGI in the assay with CAKI-1 renal, with NCI-H226 lung and in the assay with HOP-92 NSCLC were 2.14 µM, 4.56 µM and 2.09 µM, respectively.
Turning to `CCN(CC)CCCC(Nc1c2ccc(Cl)cc2nc2ccc(OC)cc12)c1ccc(Cl)cc1` (centres undefined), the GI50 in the assay with HOP-62 NSCLC was 1.61 µM; in the assay on HL-60(TB) leukemia it was 1.48 µM; in the assay with COLO 205 colon, 1.31 µM; in the assay with OVCAR-5 ovarian, 1.74 µM; in the assay on HCC-2998 colon, 1.47 µM; in the assay on SK-MEL-5 melanoma, 1.25 µM. Moreover, the figures for the GI50 in the assay on CAKI-1 renal, with RPMI-8226 leukemia and in the assay on HOP-92 NSCLC were 1.17 µM, 0.449 µM and 1.15 µM, respectively. Moreover, the TGI in the assay with HOP-62 NSCLC turned out to be 3.14 µM; in the assay on HL-60(TB) leukemia, 3.23 µM; with COLO 205 colon, 2.87 µM; with OVCAR-5 ovarian it was 3.36 µM; in the assay on HCC-2998 colon, 3.01 µM; in the assay on SK-MEL-5 melanoma it was 2.54 µM. Also, the TGI in the assay on CAKI-1 renal was found to be 2.44 µM; with RPMI-8226 leukemia it was 1.8 µM; with HOP-92 NSCLC, 2.81 µM.
As to `Nc1nc(Cl)c2ncn(Cc3ccc(C45CC6CC(CC(C6)C4)C5)c(OCc4cc(F)c(F)cc4F)c3)c2n1`, the GI50 is 3.23 µM in the assay with HOP-62 NSCLC; 1.06 µM in the assay with HL-60(TB) leukemia; 4.22 µM in the assay with COLO 205 colon; 13.4 µM with OVCAR-5 ovarian; 2.48 µM with HCC-2998 colon; 0.392 µM in the assay with SK-MEL-5 melanoma. The GI50 is 2.37 µM with CAKI-1 renal, 5.69 µM in the assay on NCI-H226 lung and 2.02 µM with HOP-92 NSCLC. The TGI was determined as 10.8 µM in the assay on HOP-62 NSCLC; 2.85 µM in the assay on HL-60(TB) leukemia; 22 µM in the assay on COLO 205 colon; 33.9 µM in the assay on OVCAR-5 ovarian; 5.58 µM with HCC-2998 colon; 2.24 µM with SK-MEL-5 melanoma. For the same molecule, the results for the TGI in the assay with CAKI-1 renal, in the assay with NCI-H226 lung and with HOP-92 NSCLC were 5.48 µM, 21.9 µM and 6.03 µM, respectively.
With `OC1=CN=C(c2ccccc2)Oc2ccccc21`, the TGI in the assay with HOP-62 NSCLC was above 100 µM; in the assay with HL-60(TB) leukemia, above 100 µM; in the assay with COLO 205 colon it was above 100 µM; in the assay with HCC-2998 colon, above 100 µM; in the assay on SK-MEL-5 melanoma, above 100 µM; with NCI-H226 lung it was 97.5 µM. The TGI in the assay with RPMI-8226 leukemia and in the assay with HOP-92 NSCLC was above 100 µM throughout.
On to `CCOC(=O)c1cc(C(=O)c2ccc(OC)c(OC)c2)n2c1ccc1ccc3cccnc3c12`, for which the GI50 in the assay with HOP-62 NSCLC was 3.78 µM; in the assay on HL-60(TB) leukemia, 2.78 µM; with OVCAR-5 ovarian it was 5.32 µM; in the assay with HCC-2998 colon, 4.08 µM; in the assay with SK-MEL-5 melanoma, 0.836 µM; in the assay on NCI-H226 lung, 6.86 µM. In addition, the GI50 in the assay with HOP-92 NSCLC is 6.78 µM. The TGI in the assay with HOP-62 NSCLC was 81.6 µM; in the assay with HL-60(TB) leukemia it was above 100 µM; in the assay on OVCAR-5 ovarian it was above 100 µM; in the assay on HCC-2998 colon, above 100 µM; in the assay on SK-MEL-5 melanoma it was 37.7 µM; with NCI-H226 lung, above 100 µM. Besides, the TGI with HOP-92 NSCLC was above 100 µM.
